{
  "source": "patent US20030143215A1",
  "about": "“Carbonyl stress-ameliorating agents” (priority 1999, published 2003)",
  "key": {"[1]": {"settings": "in vitro; Miyata T., J. Am. Soc. Nephrol. 11: 1719-1725, 2000; cited from earlier work"}, "[2]": {"test": "Incubation of sera with thiol compounds, production of AGE", "settings": "sera from a normal person and patients with diabetes mellitus; a long period was required", "description": "As described above, a decrease in concentration of redox coenzymes, such as GSH and NAD (P), is suspected to be the cause of AGE formation because of a decreased elimination of carbonyl compounds. […] Based on this theory, the present inventors tried to directly administer thiol compounds, such as GSH and cystein."}, "[3]": {"settings": "400 μM methylglyoxal, 0-8 mM glutathione, PBS(-) pH7.4, 37° C., 0-24 hours; FIG. 1", "quoted_text": "The solutions were incubated at 37° C. Samples were taken after 0, 2, 4, 8, and 24 hours; and 40 μl of 2 M perchlorate, 40 μl of 1% o-phenylenediamine, and 100 μl of 200 μM glyoxal were added to 100 μl of each sample. The mixtures were stirred, and then incubated at 25° C. for one hour."}, "[4]": {"test": "Elimination of methylglyoxal from methylglyoxal solutions in the presence of glutathione and glyoxalase I", "format": "biochemical", "settings": "400 μM methylglyoxal, 4 mM glutathione, glyoxalase I 8-80 unit/ml, 37° C., 1 hour; FIG. 2", "protocol": "PBS(-) solutions were prepared, whose methylglyoxal concentration were 400 μM, glutathione concentration 4 mM, and the concentration of an enzyme having glyoxalase I activity were 8, 16, 40, and 80 unit/ml, respectively. The solutions were incubated at 37° C. A commercially available enzyme (Sigma) derived from yeast was used as the glyoxalase I. Samples were taken after 1 hour, and then methylglyoxal was quantified by the same method as in Example 1."}, "[5]": {"test": "Dicarbonyl compound elimination in mixed solutions containing three dicarbonyl compounds", "format": "biochemical", "settings": "FIG. 4", "protocol": "PBS(-) solutions (pH7. 4) were prepared, whose concentrations of glyoxal, methylglyoxal, and 3-deoxyglucosone were all 200 μM, glutathione concentration were 0, 0.5, 1, or 5 mM, and glyoxalase I concentration were 0, 0.05, 0.1, 0.5, 1, or 2 unit/ml."}, "[6]": {"test": "Dicarbonyl compound elimination in solutions separately containing each dicarbonyl compound", "format": "biochemical", "settings": "100 μM dicarbonyl, glutathione 0-10 mM, glyoxalase I 0-10 unit/ml, 37° C., 1 hour; FIG. 5", "protocol": "PBS(-) solutions (pH 7.4) were prepared, whose glyoxal concentration were 100 μM, glutathione concentration 0, 0.1, 1, or 10 mM, and glyoxalase I concentration 0, 0.01, 0.1, 1, or 10 unit/ml. […] The same method was used for methylglyoxal and 3-deoxyglucosone in place of glyoxal."}},
  "data": [
    {"molecule": "N=C(N)NN", "note": "[aminoguanidine]", "values": [
      {"measurement": "trapping of carbonyl compounds methylglyoxal and glyoxal", "setting": "[1]", "value": "efficiently trap carbonyl compounds"}
    ]},
    {"molecule": "N[C@@H](CCC(=O)N[C@@H](CS)C(=O)NCC(=O)O)C(=O)O", "note": "[glutathione]", "values": [
      {"measurement": "production of AGE in sera", "setting": "[2]", "value": "suppressed the production of AGE"},
      {"measurement": "methylglyoxal trapping (residual rate of methylglyoxal)", "setting": "[3]", "value": "trapped by glutathione depending on the concentration of glutathione and incubation time"}
    ]},
    {"molecule": "CN(C)C(=N)N=C(N)N", "note": "[metformin]", "values": [
      {"measurement": "trapping of carbonyl compounds methylglyoxal and glyoxal", "setting": "[1]", "value": "efficiently trap carbonyl compounds"}
    ]},
    {"molecule": "N[C@@H](CS)C(=O)O", "note": "[cystein, reference compound]", "values": [
      {"measurement": "production of AGE in sera", "setting": "[2]", "value": "suppressed the production of AGE"}
    ]},
    {"molecule": "CCCCNC(=N)NC(=N)N", "note": "[buformin]", "values": [
      {"measurement": "trapping of carbonyl compounds methylglyoxal and glyoxal", "setting": "[1]", "value": "efficiently trap carbonyl compounds"}
    ]},
    {"molecule": "glyoxalase I: commercially available enzyme (Sigma) derived from yeast, lactoyl GSH lyase (EC. 4.4.1.5) (protein, UniProt P50107 1-326, looked up) Glyoxalase I: MSTDSTRYPIQIEKASNDPTLLLNHTCLRVKDPARTVKFYTEHFGMKLLSRKDFEEAKFSLYFLSFPKDDIPKNKNGEPDVFSAHGVLELTHNWGTEKNPDYKINNGNEEPHRGFGHICFSVSDINKTCEELESQGVKFKKRLSEGRQKDIAFALGPDGYWIELITYSREGQEYPKGSVGNKFNHTMIRIKNPTRSLEFYQNVLGMKLLRTSEHESAKFTLYFLGYGVPKTDSVFSCESVLELTHNWGTENDPNFHYHNGNSEPQGYGHICISCDDAGALCKEIEVKYGDKIQWSPKFNQGRMKNIAFLKDPDGYSIEVVPHGLIA", "values": [
      {"measurement": "methylglyoxal eliminated", "setting": "[4]", "value": "Approximately 99%"},
      {"measurement": "concentrations of dicarbonyl compounds in mixed solution", "setting": "[5]; 200 μM each dicarbonyl, glutathione 0-5 mM, glyoxalase I 0-2 unit/ml, 37° C., 1 hour", "value": "Decrease in the concentrations of dicarbonyl compounds was observed"},
      {"measurement": "elimination of 3-deoxyglucosone in the mixed solution of three dicarbonyl compounds", "setting": "[5]; coexistence of methylglyoxal and glyoxal, 200 μM each", "value": "decreased"},
      {"measurement": "concentrations of dicarbonyl compounds in solutions containing one dicarbonyl compound", "setting": "[6]", "value": "concentrations of dicarbonyl compounds decreased"}
    ]}
  ]
}
